{"source": "patent US4575554A", "about": "“Substituted 2-pyridylmethylthio- and sulfinyl-benzimidazoles as gastric antisecretory agents” (The Upjohn Company, priority 1984, dated 1986)", "key": {"gastric acid secretion": {"tested_on": "gastric acid secretion", "test": "inhibition of gastric acid secretion in the rat, duration of activity after subcutaneous administration", "type": "in vivo", "conditions": "after 6 days, 50 mg/kg", "source_text": "A significant advantage of certain of the compounds of the instant invention, particularly those of the Formula I wherein R1 is hydrogen, X is =S(O), R3 is methyl or ethyl, R4 is hydrogen, and R2 is methylthio, ethylthio, or propylthio, is their long duration of activity when administered subcutaneously. Thus, even after 6 days 2[(4-ethylthio-3-ethylpyridin-2-ylmethyl)sulfinyl]-benzimidazole and 2-[(4-ethylthio-3-methylpyridin-2-ylmethyl)sulfinyl]-benzimidazole inhibited gastric acid secretion in the rat 68 and 82%, respectively, when administered subcutaneously at a dose of 50 mg/kg."}, "(H^+ -K^+)ATPase": {"target": "T1, (H^+ -K^+)ATPase (Rattus norvegicus, UniProt P09626)", "T1 construct": "from tissue; host or cells: rat, in vivo (endogenous enzyme)", "T1 sequence (P09626 2-1033 limits assumed)": "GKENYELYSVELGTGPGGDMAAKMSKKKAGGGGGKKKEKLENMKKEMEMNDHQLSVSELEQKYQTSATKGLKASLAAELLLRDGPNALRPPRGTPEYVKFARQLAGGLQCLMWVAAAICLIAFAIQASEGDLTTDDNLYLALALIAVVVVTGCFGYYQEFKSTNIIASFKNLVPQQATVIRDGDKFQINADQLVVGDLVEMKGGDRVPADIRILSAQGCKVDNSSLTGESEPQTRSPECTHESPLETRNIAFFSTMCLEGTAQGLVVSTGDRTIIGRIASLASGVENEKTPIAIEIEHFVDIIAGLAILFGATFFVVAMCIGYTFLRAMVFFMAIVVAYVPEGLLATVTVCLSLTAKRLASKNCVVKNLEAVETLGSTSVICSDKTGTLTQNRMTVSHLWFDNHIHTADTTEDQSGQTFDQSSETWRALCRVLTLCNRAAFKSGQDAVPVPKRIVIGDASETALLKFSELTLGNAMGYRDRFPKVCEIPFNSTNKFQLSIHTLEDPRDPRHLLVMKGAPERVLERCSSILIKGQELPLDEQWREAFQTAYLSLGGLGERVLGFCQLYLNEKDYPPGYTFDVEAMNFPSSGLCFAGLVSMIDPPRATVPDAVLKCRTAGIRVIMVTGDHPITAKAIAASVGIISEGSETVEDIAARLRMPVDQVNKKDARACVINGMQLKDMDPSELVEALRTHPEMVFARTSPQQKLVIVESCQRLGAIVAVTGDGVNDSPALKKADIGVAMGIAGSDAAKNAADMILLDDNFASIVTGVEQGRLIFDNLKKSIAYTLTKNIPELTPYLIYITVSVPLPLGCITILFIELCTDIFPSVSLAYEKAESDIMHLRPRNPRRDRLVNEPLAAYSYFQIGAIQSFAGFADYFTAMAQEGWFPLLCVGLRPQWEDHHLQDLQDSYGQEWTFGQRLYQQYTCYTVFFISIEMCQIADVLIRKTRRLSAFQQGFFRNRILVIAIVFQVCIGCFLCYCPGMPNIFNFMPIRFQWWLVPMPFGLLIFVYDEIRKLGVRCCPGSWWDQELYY", "T1 sequence (P18598 whole entry partner)": "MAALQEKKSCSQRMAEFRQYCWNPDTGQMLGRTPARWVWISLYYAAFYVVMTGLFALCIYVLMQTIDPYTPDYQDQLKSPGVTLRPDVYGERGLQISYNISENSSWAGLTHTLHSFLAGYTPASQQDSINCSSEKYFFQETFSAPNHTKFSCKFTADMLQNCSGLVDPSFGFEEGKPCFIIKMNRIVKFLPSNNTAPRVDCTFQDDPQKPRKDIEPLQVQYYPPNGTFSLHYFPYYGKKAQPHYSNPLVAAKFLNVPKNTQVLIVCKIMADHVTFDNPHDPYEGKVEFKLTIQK", "test": "in vivo inactivation of (H^+ -K^+)ATPase in the rat", "conditions": "shown to be the most effective"}, "isolated gastric glands": {"tested_on": "isolated gastric glands", "test": "inhibition of acid secretion in isolated gastric glands of the rabbit", "type": "cell-based", "conditions": "Oryctolagus cuniculus, shown to be the most effective, read-out: ID50 (the source's name)"}, "gastric(H^+ -K^+)ATPase": {"target": "T2, gastric(H^+ -K^+)ATPase (Sus scrofa, UniProt P19156)", "T2 construct": "isolated hog gastric membranes enriched with gastric(H^+ -K^+)ATPase; from tissue; host or cells: hog gastric membranes", "T2 sequence (P19156 2-1034 limits assumed)": "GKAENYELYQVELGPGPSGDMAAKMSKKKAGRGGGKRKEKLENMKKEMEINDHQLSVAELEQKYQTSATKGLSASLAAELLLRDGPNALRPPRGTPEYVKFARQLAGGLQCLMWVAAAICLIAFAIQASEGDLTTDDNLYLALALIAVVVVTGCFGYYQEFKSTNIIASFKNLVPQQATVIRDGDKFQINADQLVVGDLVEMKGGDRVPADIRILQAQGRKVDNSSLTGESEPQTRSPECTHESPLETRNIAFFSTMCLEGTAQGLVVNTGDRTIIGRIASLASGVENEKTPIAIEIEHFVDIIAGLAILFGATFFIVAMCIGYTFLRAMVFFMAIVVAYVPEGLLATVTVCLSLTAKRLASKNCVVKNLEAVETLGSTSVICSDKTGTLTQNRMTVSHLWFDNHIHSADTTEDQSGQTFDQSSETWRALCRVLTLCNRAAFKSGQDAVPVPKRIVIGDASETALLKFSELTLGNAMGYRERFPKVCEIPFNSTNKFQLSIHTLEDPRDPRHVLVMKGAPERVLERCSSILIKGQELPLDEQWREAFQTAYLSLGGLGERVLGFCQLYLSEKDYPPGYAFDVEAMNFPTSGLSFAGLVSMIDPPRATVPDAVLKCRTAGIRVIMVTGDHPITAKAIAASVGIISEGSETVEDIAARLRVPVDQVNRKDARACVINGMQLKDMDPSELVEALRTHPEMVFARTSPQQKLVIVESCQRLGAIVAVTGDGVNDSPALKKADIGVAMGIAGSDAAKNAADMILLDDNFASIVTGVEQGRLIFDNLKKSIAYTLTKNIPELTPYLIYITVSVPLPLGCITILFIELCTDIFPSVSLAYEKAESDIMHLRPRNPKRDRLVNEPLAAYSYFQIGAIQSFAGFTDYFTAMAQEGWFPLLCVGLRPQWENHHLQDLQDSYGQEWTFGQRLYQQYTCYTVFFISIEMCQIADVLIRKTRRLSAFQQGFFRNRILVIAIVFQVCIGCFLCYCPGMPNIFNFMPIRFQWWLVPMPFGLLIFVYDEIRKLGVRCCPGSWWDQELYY", "T2 sequence (P18434 whole entry partner)": "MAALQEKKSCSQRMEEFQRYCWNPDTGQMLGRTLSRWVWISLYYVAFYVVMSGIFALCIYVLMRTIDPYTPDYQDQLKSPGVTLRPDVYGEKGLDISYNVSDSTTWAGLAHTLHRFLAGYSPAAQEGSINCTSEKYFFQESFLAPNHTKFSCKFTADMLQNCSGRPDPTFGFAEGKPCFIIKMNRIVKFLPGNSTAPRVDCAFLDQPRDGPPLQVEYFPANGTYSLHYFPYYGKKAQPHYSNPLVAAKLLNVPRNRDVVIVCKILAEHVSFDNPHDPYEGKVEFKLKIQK", "test": "inhibition of K^+ -dependent ATP hydrolysis by isolated hog gastric membranes enriched with gastric (H^+ -K^+)ATPase", "type": "biochemical", "conditions": "shown to be the most effective, read-out: ID50 (the source's name)"}}}
{"smiles": "CCSc1ccnc(C[S+]([O-])c2nc3ccccc3[nH]2)c1C", "note": "(centres unmarked) [Compound 7, 2-[(4-ethylthio-3-methylpyridin-2-ylmethyl)sulfinyl]-benzimidazole]", "values": [{"measurement": "inhibition of gastric acid secretion", "setting": "gastric acid secretion", "value": 82, "unit": "%"}, {"measurement": "ED50", "setting": "(H^+ -K^+)ATPase", "value": 1, "unit": "mg/kg"}]}
{"smiles": "CCSc1ccnc(C[S+]([O-])c2nc3ccccc3[nH]2)c1CC", "note": "(centres unmarked) [Compound 12, 2-[(4-ethylthio-3-ethylpyridin-2-ylmethyl)sulfinyl]-benzimidazole]", "values": [{"measurement": "inhibition of gastric acid secretion", "setting": "gastric acid secretion", "value": 68, "unit": "%"}, {"measurement": "IC50", "setting": "isolated gastric glands", "value": 100, "unit": "nM"}]}
{"smiles": "CCc1c(OC)ccnc1C[S+]([O-])c1nc2ccccc2[nH]1", "note": "(centres unmarked) [Compound 15, 2-[(4-methoxy-3-ethylpyridin-2-ylmethyl)sulfinyl]-benzimidazole]", "values": [{"measurement": "IC50", "setting": "gastric(H^+ -K^+)ATPase", "value": 3, "unit": "µM"}]}
